Target: HTDPNΔ1-39 (recombinant human TDP) (Homo sapiens, UniProt Q9NUW8)
Settings: manganese chloride 5 mM or 10 mM; 5 mM substrate, 5 μg protein; absorbance at 415 nm; FIG. 7
Source text: In these assays, a chromogenic enzymatic assay system is used. In these systems, a substrate of smaller molecular weight (i.e., as compared with other substrates) containing one single base of thymidine, with chromogenic para-nitrophenyl group attached to the 3′-hydroxy group of deoxyribose was chosen. This compound mimics the aromatic groups of tyrosine in topo I-DNA complexes.
Upon the cleavage of the phosphodiester bond by TDP, the p-nitrophenol group mimicking the tyrosine residue in topo I-DNA complexes is released. The concentration of this group (i.e., a chromogen) is determined using spectroscopy. Thus, in this Example, enzymatic reactions contained 100 mM Tris HCl, pH 8.5, 100 mM NaCl, 1 mM DTT, 5 mM para-nitrophenyl thymidine-3′-phosphate and 5 μg of purified protein in a volume of 200 μl. For these reactions, 96-well plates were used. The amount of cleaved product (p-nitrophenol) was assessed by determining its absorbance at 415 nm (Ultramark Microplate Imaging System, BioRad).
During the development of this assay system, it was determined that the system may be optimized by the inclusion of manganese cation in the assay. […] Upon incubation of various TDP mutants and the substrate (para-nitrophenyl-thymidine-3′-phosphate) in the presence of manganese cations, the concentrations of the resulting para-nitrophenynol were calculated based on the optical density measured at 415 nm. […]

HTDPNΔ1-39 (recombinant human TDP), sequence (Q9NUW8 40-608, stated change not applied): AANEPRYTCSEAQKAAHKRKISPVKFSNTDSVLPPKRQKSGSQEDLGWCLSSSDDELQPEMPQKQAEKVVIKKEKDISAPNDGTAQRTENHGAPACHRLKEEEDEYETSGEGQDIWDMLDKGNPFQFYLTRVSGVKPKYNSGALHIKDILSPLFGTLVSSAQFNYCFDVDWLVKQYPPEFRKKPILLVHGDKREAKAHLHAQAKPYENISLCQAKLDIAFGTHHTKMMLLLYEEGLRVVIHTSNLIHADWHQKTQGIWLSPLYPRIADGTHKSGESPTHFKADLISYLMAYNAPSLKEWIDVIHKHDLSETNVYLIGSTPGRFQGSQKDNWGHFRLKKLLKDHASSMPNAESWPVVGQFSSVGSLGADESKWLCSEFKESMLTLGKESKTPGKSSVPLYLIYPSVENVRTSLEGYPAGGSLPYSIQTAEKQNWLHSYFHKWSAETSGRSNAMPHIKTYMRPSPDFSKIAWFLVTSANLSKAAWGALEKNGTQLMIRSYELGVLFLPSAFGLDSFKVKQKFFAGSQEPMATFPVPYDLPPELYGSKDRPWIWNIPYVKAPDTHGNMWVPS

In the case of manganese chloride, the “increase of enzymatic activity on para-nitrophenyl thymidine-3′-phosphate, as compared to the activity in the presence of magnesium” value is reported as 7 fold and the “increase of enzymatic activity on para-nitrophenyl thymidine-3′-phosphate, as compared with the activity in the absence of cations” value is reported as 17 fold.

— patent US6787327B2, “Methods for determining tyrosine-DNA phosphodiesterase activity” (Kelk Graduate of Applied Life Sciences, priority 2001, dated 2004)
